Where a SMILES comes first, the peptide text is derived from it. [ ]: non-standard residue; d: D form. ξ: configuration not given here. Ile(3ξ) = CCC(C)[C@H](N)C(=O)O
What follows are molecules tested against T1, Pituitary adenylate cyclase-activating polypeptide (Rattus norvegicus, UniProt P13589).
T1 sequence (P13589 whole entry): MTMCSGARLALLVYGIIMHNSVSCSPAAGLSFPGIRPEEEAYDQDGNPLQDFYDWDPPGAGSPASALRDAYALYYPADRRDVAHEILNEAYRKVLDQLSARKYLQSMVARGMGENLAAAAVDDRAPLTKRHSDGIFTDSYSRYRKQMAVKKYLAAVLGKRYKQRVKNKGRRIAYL

Q: With `CCC(C)[C@H](N)C(=O)N[C@@H](Cc1ccccc1)C(=O)N[C@H](C(=O)N[C@@H](CC(=O)O)C(=O)N[C@@H](CO)C(=O)N[C@@H](Cc1ccc(O)cc1)C(=O)N[C@@H](CO)C(=O)N[C@@H](CCCN=C(N)N)C(=O)N[C@@H](Cc1ccc(O)cc1)C(=O)N[C@@H](CCCN=C(N)N)C(=O)N[C@@H](CCCCN)C(=O)N[C@@H](CCC(N)=O)C(=O)N[C@@H](CCSC)C(=O)N[C@@H](C)C(=O)N[C@H](C(=O)N[C@@H](CCCCN)C(=O)N[C@@H](CCCCN)C(=O)N[C@@H](Cc1ccc(O)cc1)C(=O)N[C@@H](CC(C)C)C(=O)N[C@@H](C)C(=O)N[C@@H](C)C(=O)N[C@H](C(=O)N[C@@H](CC(C)C)C(=O)NCC(=O)N[C@@H](CCCCN)C(=O)N[C@@H](CCCN=C(N)N)C(=O)N[C@@H](Cc1ccc(O)cc1)C(=O)N[C@@H](CCCCN)C(=O)N[C@@H](CCC(N)=O)C(=O)N[C@@H](CCCN=C(N)N)C(=O)N[C@H](C(=O)N[C@@H](CCCCN)C(=O)N[C@@H](CC(N)=O)C(=O)N[C@@H](CCCCN)C(N)=O)C(C)C)C(C)C)C(C)C)[C@@H](C)O` (stereo not given in full) [PACAP(5-38)] (H-[Ile(3ξ)]FTDSYSRYRKQMAVKKYLAAVLGKRYKQRVKNK-NH2) as the molecule, how does the Ki read?
A: Its Ki is 9 nM.

Q: `CCC(C)[C@H](NC(=O)CNC(=O)[C@@H](N)CC(=O)O)C(=O)N[C@@H](Cc1ccccc1)C(=O)N[C@H](C(=O)N[C@@H](CC(=O)O)C(=O)N[C@@H](CO)C(=O)N[C@@H](Cc1ccc(O)cc1)C(=O)N[C@@H](CO)C(=O)N[C@@H](CCCN=C(N)N)C(=O)N[C@@H](Cc1ccc(O)cc1)C(=O)N[C@@H](CCCN=C(N)N)C(=O)N[C@@H](CCCCN)C(=O)N[C@@H](CCC(N)=O)C(=O)N[C@@H](CCSC)C(=O)N[C@@H](C)C(=O)N[C@H](C(=O)N[C@@H](CCCCN)C(=O)N[C@@H](CCCCN)C(=O)N[C@@H](Cc1ccc(O)cc1)C(=O)N[C@@H](CC(C)C)C(=O)N[C@@H](C)C(=O)N[C@@H](C)C(=O)N[C@H](C(=O)N[C@@H](CC(C)C)C(=O)NCC(=O)N[C@@H](CCCCN)C(=O)N[C@@H](CCCN=C(N)N)C(=O)N[C@@H](Cc1ccc(O)cc1)C(=O)N[C@@H](CCCCN)C(=O)N[C@@H](CCC(N)=O)C(=O)N[C@@H](CCCN=C(N)N)C(=O)N[C@H](C(=O)N[C@@H](CCCCN)C(=O)N[C@@H](CC(N)=O)C(=O)N[C@@H](CCCCN)C(N)=O)C(C)C)C(C)C)C(C)C)[C@@H](C)O` (stereo not given in full) [PACAP(3-38)] (H-DG[Ile(3ξ)]FTDSYSRYRKQMAVKKYLAAVLGKRYKQRVKNK-NH2) was tested. Which Ki did it give?
A: Its Ki is 10 nM.

Q: How did the Ki turn out when `CC[C@H](C)[C@H](NC(=O)CNC(=O)[C@H](CC(=O)O)NC(=O)[C@H](C)NC(=O)[C@@H](N)Cc1cnc[nH]1)C(=O)N[C@@H](Cc1ccccc1)C(=O)N[C@H](C(=O)N[C@@H](CC(=O)O)C(=O)N[C@@H](CO)C(=O)N[C@@H](Cc1ccc(O)cc1)C(=O)N[C@@H](CO)C(=O)N[C@@H](CCCNC(=N)N)C(=O)N[C@@H](Cc1ccc(O)cc1)C(=O)N[C@@H](CCCNC(=N)N)C(=O)N[C@@H](CCCCN)C(=O)N[C@@H](CCC(N)=O)C(=O)N[C@@H](CCSC)C(=O)N[C@@H](C)C(=O)N[C@H](C(=O)N[C@@H](CCCCN)C(=O)N[C@@H](CCCCN)C(=O)N[C@@H](Cc1ccc(O)cc1)C(=O)N[C@@H](CC(C)C)C(=O)N[C@@H](C)C(=O)N[C@@H](C)C(=O)N[C@H](C(=O)N[C@@H](CC(C)C)C(=O)NCC(=O)N[C@@H](CCCCN)C(=O)N[C@@H](CCCNC(=N)N)C(=O)N[C@@H](Cc1ccc(O)cc1)C(=O)N[C@@H](CCCCN)C(=O)N[C@@H](CCC(N)=O)C(=O)N[C@@H](CCCNC(=N)N)C(=O)N[C@H](C(=O)N[C@@H](CCCCN)C(=O)N[C@@H](CC(N)=O)C(=O)N[C@@H](CCCCN)C(N)=O)C(C)C)C(C)C)C(C)C)[C@@H](C)O` was run?
A: Its Ki is 0.5 nM.

Q: `CC[C@H](C)[C@H](NC(=O)CNC(=O)[C@H](CC(N)=O)NC(=O)[C@H](CO)NC(=O)[C@@H](N)Cc1cnc[nH]1)C(=O)N[C@@H](Cc1ccccc1)C(=O)N[C@H](C(=O)N[C@@H](CC(=O)O)C(=O)N[C@@H](CO)C(=O)N[C@@H](Cc1ccc(O)cc1)C(=O)N[C@@H](CO)C(=O)N[C@@H](CCCNC(=N)N)C(=O)N[C@@H](Cc1ccc(O)cc1)C(=O)N[C@@H](CCCNC(=N)N)C(=O)N[C@@H](CCCCN)C(=O)N[C@@H](CCC(N)=O)C(=O)N[C@@H](CCSC)C(=O)N[C@@H](C)C(=O)N[C@H](C(=O)N[C@@H](CCCCN)C(=O)N[C@@H](CCCCN)C(=O)N[C@@H](Cc1ccc(O)cc1)C(=O)N[C@@H](CC(C)C)C(=O)N[C@@H](C)C(=O)N[C@@H](C)C(=O)N[C@H](C(=O)N[C@@H](CC(C)C)C(N)=O)C(C)C)C(C)C)[C@@H](C)O` [[Asn3]PACAP(1-27)] was tested. Which Ki did it give?
A: Its Ki is 4000 nM.

Q: Which Ki does the source give for “H-YSRYRKQMAVKKYLAAVLGKRYKQRVKNK-NH2 [PACAP(10-38)]” here?
A: The Ki was 90 nM.

Q: How did the Ki turn out when `CC[C@H](C)[C@H](NC(=O)CNC(=O)[C@H](CC(=O)O)NC(=O)[C@H](CCCN=C(N)N)NC(=O)[C@@H](N)Cc1cnc[nH]1)C(=O)N[C@@H](Cc1ccccc1)C(=O)N[C@H](C(=O)N[C@@H](CC(=O)O)C(=O)N[C@@H](CO)C(=O)N[C@@H](Cc1ccc(O)cc1)C(=O)N[C@@H](CO)C(=O)N[C@@H](CCCN=C(N)N)C(=O)N[C@@H](Cc1ccc(O)cc1)C(=O)N[C@@H](CCCN=C(N)N)C(=O)N[C@@H](CCCCN)C(=O)N[C@@H](CCC(N)=O)C(=O)N[C@@H](CCSC)C(=O)N[C@@H](C)C(=O)N[C@H](C(=O)N[C@@H](CCCCN)C(=O)N[C@@H](CCCCN)C(=O)N[C@@H](Cc1ccc(O)cc1)C(=O)N[C@@H](CC(C)C)C(=O)N[C@@H](C)C(=O)N[C@@H](C)C(=O)N[C@H](C(=O)N[C@@H](CC(C)C)C(=O)NCC(=O)N[C@@H](CCCCN)C(=O)N[C@@H](CCCN=C(N)N)C(=O)N[C@@H](Cc1ccc(O)cc1)C(=O)N[C@@H](CCCCN)C(=O)N[C@@H](CCC(N)=O)C(=O)N[C@@H](CCCN=C(N)N)C(=O)N[C@H](C(=O)N[C@@H](CCCCN)C(=O)N[C@@H](CC(N)=O)C(=O)N[C@@H](CCCCN)C(N)=O)C(C)C)C(C)C)C(C)C)[C@@H](C)O` [[Arg2]PACAP(1-38)] was run?
A: The Ki was 10 nM.

Q: With `CC[C@H](C)[C@H](NC(=O)CNC(=O)[C@H](CC(=O)O)NC(=O)[C@@H](CCCN=C(N)N)NC(=O)[C@@H](N)Cc1cnc[nH]1)C(=O)N[C@@H](Cc1ccccc1)C(=O)N[C@H](C(=O)N[C@@H](CC(=O)O)C(=O)N[C@@H](CO)C(=O)N[C@@H](Cc1ccc(O)cc1)C(=O)N[C@@H](CO)C(=O)N[C@@H](CCCN=C(N)N)C(=O)N[C@@H](Cc1ccc(O)cc1)C(=O)N[C@@H](CCCN=C(N)N)C(=O)N[C@@H](CCCCN)C(=O)N[C@@H](CCC(N)=O)C(=O)N[C@@H](CCSC)C(=O)N[C@@H](C)C(=O)N[C@H](C(=O)N[C@@H](CCCCN)C(=O)N[C@@H](CCCCN)C(=O)N[C@@H](Cc1ccc(O)cc1)C(=O)N[C@@H](CC(C)C)C(=O)N[C@@H](C)C(=O)N[C@@H](C)C(=O)N[C@H](C(=O)N[C@@H](CC(C)C)C(N)=O)C(C)C)C(C)C)[C@@H](C)O` [[DArg2]PACAP(1-27)] as the molecule, how does the Ki read?
A: Its Ki is 500 nM.

Q: How did the Ki turn out when “H-SRYRKQMAVKKYLAAVLGKRYKQRVKNK-NH2 [PACAP(11-38)]” was run?
A: The Ki was 100 nM.

Q: Which Ki does the source give for `CCC(C)[C@H](NC(=O)CNC(=O)[C@H](CC(=O)O)NC(=O)[C@@H](N)CO)C(=O)N[C@@H](Cc1ccccc1)C(=O)N[C@H](C(=O)N[C@@H](CC(=O)O)C(=O)N[C@@H](CO)C(=O)N[C@@H](Cc1ccc(O)cc1)C(=O)N[C@@H](CO)C(=O)N[C@@H](CCCN=C(N)N)C(=O)N[C@@H](Cc1ccc(O)cc1)C(=O)N[C@@H](CCCN=C(N)N)C(=O)N[C@@H](CCCCN)C(=O)N[C@@H](CCC(N)=O)C(=O)N[C@@H](CCSC)C(=O)N[C@@H](C)C(=O)N[C@H](C(=O)N[C@@H](CCCCN)C(=O)N[C@@H](CCCCN)C(=O)N[C@@H](Cc1ccc(O)cc1)C(=O)N[C@@H](CC(C)C)C(=O)N[C@@H](C)C(=O)N[C@@H](C)C(=O)N[C@H](C(=O)N[C@@H](CC(C)C)C(=O)NCC(=O)N[C@@H](CCCCN)C(=O)N[C@@H](CCCN=C(N)N)C(=O)N[C@@H](Cc1ccc(O)cc1)C(=O)N[C@@H](CCCCN)C(=O)N[C@@H](CCC(N)=O)C(=O)N[C@@H](CCCN=C(N)N)C(=O)N[C@H](C(=O)N[C@@H](CCCCN)C(=O)N[C@@H](CC(N)=O)C(=O)N[C@@H](CCCCN)C(N)=O)C(C)C)C(C)C)C(C)C)[C@@H](C)O` (stereo not given in full) [PACAP(2-38)] (H-SDG[Ile(3ξ)]FTDSYSRYRKQMAVKKYLAAVLGKRYKQRVKNK-NH2) here?
A: The Ki was 3 nM.

Q: With “H-SYSRYRKQMAVKKYLAAVLGKRYKQRVKNK-NH2 [PACAP(9-38)]” as the molecule, how does the Ki read?
A: Its Ki is 30 nM.

Source: BindingDB's records for doi:10.1016/s0028-3908(05)80009-7 (Universit&Eacute, 1994)
